Measured values published in ChEMBL document CHEMBL4507284, “Data for DCP probe BI-1230” (2021).

Experiments:
[1] = system: Tyrosine-protein kinase ABL1 (Homo sapiens), P00519 [F317L]; conditions: Compound concentration 1000.0 nM
[2] = molecular target: Cytoplasmic tyrosine-protein kinase BMX (Homo sapiens) (UniProt P51813); conditions: Compound concentration 1000.0 nM
[3] = molecular target: Casein kinase I isoform gamma-2 (Homo sapiens) (UniProt P78368); conditions: Compound concentration 1000.0 nM
[4] = molecular target: Serine/threonine-protein kinase MRCK gamma (Homo sapiens) (UniProt Q6DT37); conditions: Compound concentration 1000.0 nM
[5] = system: Epidermal growth factor receptor (Homo sapiens), P00533 [UNDEFINED MUTATION]; conditions: Compound concentration 1000.0 nM
[6] = molecular target: Ephrin type-A receptor 3 (Homo sapiens) (UniProt P29320); conditions: Compound concentration 1000.0 nM
[7] = system: Receptor-type tyrosine-protein kinase FLT3 (Homo sapiens), P36888 [UNDEFINED MUTATION]; conditions: Compound concentration 1000.0 nM
[8] = system: Receptor-type tyrosine-protein kinase FLT3 (Homo sapiens), P36888 [N841I]; conditions: Compound concentration 1000.0 nM
[9] = molecular target: Tyrosine-protein kinase FRK (Homo sapiens) (UniProt P42685); conditions: Compound concentration 1000.0 nM
[10] = molecular target: Glycogen synthase kinase-3 beta (Homo sapiens) (UniProt P49841); conditions: Compound concentration 1000.0 nM
[11] = molecular target: Inhibitor of nuclear factor kappa-B kinase subunit epsilon (Homo sapiens) (UniProt Q14164); conditions: Compound concentration 1000.0 nM
[12] = molecular target: Insulin receptor-related protein (Homo sapiens) (UniProt P14616); conditions: Compound concentration 1000.0 nM
[13] = molecular target: Tyrosine-protein kinase JAK2 (Homo sapiens) (UniProt O60674); conditions: Compound concentration 1000.0 nM
[14] = system: Mast/stem cell growth factor receptor Kit (Homo sapiens), P10721 [D816V]; conditions: Compound concentration 1000.0 nM
[15] = molecular target: Tyrosine-protein kinase Lck (Homo sapiens) (UniProt P06239); conditions: Compound concentration 1000.0 nM
[16] = molecular target: Dual specificity mitogen-activated protein kinase kinase 7 (Homo sapiens) (UniProt O14733); conditions: Compound concentration 1000.0 nM
[17] = molecular target: Muscle, skeletal receptor tyrosine-protein kinase (Homo sapiens) (UniProt O15146); conditions: Compound concentration 1000.0 nM
[18] = molecular target: Myosin light chain kinase family member 4 (Homo sapiens) (UniProt Q86YV6); conditions: Compound concentration 1000.0 nM
[19] = molecular target: Myosin-IIIb (Homo sapiens) (UniProt Q8WXR4); conditions: Compound concentration 1000.0 nM
[20] = molecular target: Serine/threonine-protein kinase Nek3 (Homo sapiens) (UniProt P51956); conditions: Compound concentration 1000.0 nM
[21] = molecular target: Platelet-derived growth factor receptor beta (Homo sapiens) (UniProt P09619); conditions: Compound concentration 1000.0 nM
[22] = molecular target: Calcium-dependent protein kinase 1 (Plasmodium falciparum) (UniProt P62344); conditions: Compound concentration 1000.0 nM
[23] = molecular target: Phosphatidylinositol 3-kinase C2 domain-containing subunit gamma (Homo sapiens) (UniProt O75747); conditions: Compound concentration 1000.0 nM
[24] = molecular target: Phosphatidylinositol 4,5-bisphosphate 3-kinase catalytic subunit gamma isoform (Homo sapiens) (UniProt P48736); conditions: Compound concentration 1000.0 nM
[25] = molecular target: 1-phosphatidylinositol 3-phosphate 5-kinase (Homo sapiens) (UniProt Q9Y2I7); conditions: Compound concentration 1000.0 nM
[26] = molecular target: Phosphatidylinositol 4-phosphate 5-kinase type-1 gamma (Homo sapiens) (UniProt O60331); conditions: Compound concentration 1000.0 nM
[27] = molecular target: Serine/threonine-protein kinase PLK2 (Homo sapiens) (UniProt Q9NYY3); conditions: Compound concentration 1000.0 nM
[28] = molecular target: Serine/threonine-protein kinase PLK4 (Homo sapiens) (UniProt O00444); conditions: Compound concentration 1000.0 nM
[29] = molecular target: cGMP-dependent protein kinase 1 (Homo sapiens) (UniProt Q13976); conditions: Compound concentration 1000.0 nM
[30] = molecular target: cAMP-dependent protein kinase catalytic subunit PRKX (Homo sapiens) (UniProt P51817); conditions: Compound concentration 1000.0 nM
[31] = molecular target: Protein-tyrosine kinase 2-beta (Homo sapiens) (UniProt Q14289); conditions: Compound concentration 1000.0 nM
[32] = system: Proto-oncogene tyrosine-protein kinase receptor Ret (Homo sapiens), P07949 [M918T]; conditions: Compound concentration 1000.0 nM
[33] = system: Proto-oncogene tyrosine-protein kinase receptor Ret (Homo sapiens), P07949 [V804M]; conditions: Compound concentration 1000.0 nM
[34] = molecular target: Serine/threonine-protein kinase RIO3 (Homo sapiens) (UniProt O14730); conditions: Compound concentration 1000.0 nM
[35] = molecular target: Ribosomal protein S6 kinase alpha-6 (Homo sapiens) (UniProt Q9UK32); conditions: Compound concentration 1000.0 nM
[36] = molecular target: Serine/threonine-protein kinase tousled-like 2 (Homo sapiens) (UniProt Q86UE8); conditions: Compound concentration 1000.0 nM
[37] = molecular target: NT-3 growth factor receptor (Homo sapiens) (UniProt Q16288); conditions: Compound concentration 1000.0 nM
[38] = molecular target: Testis-specific serine/threonine-protein kinase 3 (Homo sapiens) (UniProt Q96PN8); conditions: Compound concentration 1000.0 nM
[39] = molecular target: Serine/threonine-protein kinase ULK1 (Homo sapiens) (UniProt O75385); conditions: Compound concentration 1000.0 nM
[40] = molecular target: Serine/threonine-protein kinase ULK2 (Homo sapiens) (UniProt Q8IYT8); conditions: Compound concentration 1000.0 nM
[41] = molecular target: Mitogen-activated protein kinase kinase kinase 19 (Homo sapiens) (UniProt Q56UN5); conditions: Compound concentration 1000.0 nM
[42] = molecular target: D(1A) dopamine receptor (Homo sapiens) (UniProt P21728); conditions: Compound concentration 10.0 uM
[43] = molecular target: Histamine H4 receptor (Homo sapiens) (UniProt Q9H3N8); conditions: Compound concentration 10.0 uM
[44] = molecular target: Beta-2 adrenergic receptor (Homo sapiens) (UniProt P07550); conditions: Compound concentration 10.0 uM

Sequence of Insulin receptor-related protein (Homo sapiens) (P14616 27-742 limits assumed): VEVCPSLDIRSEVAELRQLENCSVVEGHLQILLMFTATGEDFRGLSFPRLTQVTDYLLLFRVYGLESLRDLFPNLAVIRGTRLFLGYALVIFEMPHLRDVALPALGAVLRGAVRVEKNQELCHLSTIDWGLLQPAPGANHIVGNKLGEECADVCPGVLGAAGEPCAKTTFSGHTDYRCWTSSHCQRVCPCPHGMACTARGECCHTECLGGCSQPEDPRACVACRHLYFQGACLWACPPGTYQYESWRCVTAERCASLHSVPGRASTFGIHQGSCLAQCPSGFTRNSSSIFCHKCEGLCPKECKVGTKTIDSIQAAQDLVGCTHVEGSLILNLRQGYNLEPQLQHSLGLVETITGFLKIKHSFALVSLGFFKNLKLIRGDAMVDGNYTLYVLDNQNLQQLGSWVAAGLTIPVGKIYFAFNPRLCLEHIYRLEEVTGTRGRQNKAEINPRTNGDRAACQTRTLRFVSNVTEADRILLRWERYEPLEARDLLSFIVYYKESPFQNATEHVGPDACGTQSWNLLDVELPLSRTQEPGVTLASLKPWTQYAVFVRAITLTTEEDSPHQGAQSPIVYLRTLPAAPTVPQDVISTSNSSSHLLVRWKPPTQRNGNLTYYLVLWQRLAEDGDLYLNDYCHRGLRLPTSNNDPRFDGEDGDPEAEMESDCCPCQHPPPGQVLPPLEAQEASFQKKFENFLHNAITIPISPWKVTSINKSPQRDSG
Sequence of Insulin receptor-related protein (Homo sapiens) (P14616 747-1297 limits assumed): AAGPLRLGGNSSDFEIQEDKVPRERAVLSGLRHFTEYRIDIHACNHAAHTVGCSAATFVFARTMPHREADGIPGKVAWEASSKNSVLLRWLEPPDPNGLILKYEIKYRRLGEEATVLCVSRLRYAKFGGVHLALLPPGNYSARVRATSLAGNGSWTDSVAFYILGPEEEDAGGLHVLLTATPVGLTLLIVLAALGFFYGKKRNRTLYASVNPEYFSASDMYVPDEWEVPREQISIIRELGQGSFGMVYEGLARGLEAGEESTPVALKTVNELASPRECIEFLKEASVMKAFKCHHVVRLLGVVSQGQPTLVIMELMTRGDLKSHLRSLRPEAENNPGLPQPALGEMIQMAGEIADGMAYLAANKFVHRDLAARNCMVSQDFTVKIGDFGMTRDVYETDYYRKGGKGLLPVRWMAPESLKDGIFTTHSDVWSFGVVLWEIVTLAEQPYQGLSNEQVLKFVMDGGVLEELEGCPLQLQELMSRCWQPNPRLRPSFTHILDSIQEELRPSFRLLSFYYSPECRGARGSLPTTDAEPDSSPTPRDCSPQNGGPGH
Sequence of Serine/threonine-protein kinase tousled-like 2 (Homo sapiens) (Q86UE8 whole entry, looked up): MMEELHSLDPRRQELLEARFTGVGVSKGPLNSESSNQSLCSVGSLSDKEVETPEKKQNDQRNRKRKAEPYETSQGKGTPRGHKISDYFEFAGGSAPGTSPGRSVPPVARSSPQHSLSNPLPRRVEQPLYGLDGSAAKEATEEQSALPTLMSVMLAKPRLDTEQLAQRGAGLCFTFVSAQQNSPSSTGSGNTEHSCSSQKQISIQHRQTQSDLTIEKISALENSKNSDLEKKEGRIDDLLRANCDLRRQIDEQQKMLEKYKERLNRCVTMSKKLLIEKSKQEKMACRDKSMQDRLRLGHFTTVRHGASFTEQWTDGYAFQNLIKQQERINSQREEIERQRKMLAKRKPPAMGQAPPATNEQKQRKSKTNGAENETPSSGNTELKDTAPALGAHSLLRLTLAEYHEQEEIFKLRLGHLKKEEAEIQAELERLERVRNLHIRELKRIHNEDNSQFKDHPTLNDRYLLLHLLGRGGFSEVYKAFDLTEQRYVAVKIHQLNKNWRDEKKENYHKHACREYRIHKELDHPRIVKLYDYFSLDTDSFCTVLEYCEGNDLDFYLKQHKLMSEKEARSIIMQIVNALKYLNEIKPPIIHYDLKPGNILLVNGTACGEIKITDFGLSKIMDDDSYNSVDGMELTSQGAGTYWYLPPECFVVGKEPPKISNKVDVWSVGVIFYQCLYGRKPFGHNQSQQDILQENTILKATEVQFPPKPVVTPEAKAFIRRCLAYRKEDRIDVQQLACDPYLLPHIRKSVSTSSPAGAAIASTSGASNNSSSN
Sequence of D(1A) dopamine receptor (Homo sapiens) (P21728 whole entry): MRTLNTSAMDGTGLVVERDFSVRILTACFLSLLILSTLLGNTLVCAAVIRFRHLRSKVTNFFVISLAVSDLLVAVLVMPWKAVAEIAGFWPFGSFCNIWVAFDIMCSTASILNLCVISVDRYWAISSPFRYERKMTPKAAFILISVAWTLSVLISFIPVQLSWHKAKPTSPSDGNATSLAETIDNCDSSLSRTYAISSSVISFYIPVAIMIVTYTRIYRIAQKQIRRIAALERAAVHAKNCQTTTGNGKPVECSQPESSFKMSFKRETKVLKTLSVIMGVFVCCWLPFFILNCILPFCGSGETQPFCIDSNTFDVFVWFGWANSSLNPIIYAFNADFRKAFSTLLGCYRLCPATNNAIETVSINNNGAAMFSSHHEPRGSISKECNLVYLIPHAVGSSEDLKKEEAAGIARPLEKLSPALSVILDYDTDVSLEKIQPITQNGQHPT
Sequence of Myosin-IIIb (Homo sapiens) (Q8WXR4 whole entry): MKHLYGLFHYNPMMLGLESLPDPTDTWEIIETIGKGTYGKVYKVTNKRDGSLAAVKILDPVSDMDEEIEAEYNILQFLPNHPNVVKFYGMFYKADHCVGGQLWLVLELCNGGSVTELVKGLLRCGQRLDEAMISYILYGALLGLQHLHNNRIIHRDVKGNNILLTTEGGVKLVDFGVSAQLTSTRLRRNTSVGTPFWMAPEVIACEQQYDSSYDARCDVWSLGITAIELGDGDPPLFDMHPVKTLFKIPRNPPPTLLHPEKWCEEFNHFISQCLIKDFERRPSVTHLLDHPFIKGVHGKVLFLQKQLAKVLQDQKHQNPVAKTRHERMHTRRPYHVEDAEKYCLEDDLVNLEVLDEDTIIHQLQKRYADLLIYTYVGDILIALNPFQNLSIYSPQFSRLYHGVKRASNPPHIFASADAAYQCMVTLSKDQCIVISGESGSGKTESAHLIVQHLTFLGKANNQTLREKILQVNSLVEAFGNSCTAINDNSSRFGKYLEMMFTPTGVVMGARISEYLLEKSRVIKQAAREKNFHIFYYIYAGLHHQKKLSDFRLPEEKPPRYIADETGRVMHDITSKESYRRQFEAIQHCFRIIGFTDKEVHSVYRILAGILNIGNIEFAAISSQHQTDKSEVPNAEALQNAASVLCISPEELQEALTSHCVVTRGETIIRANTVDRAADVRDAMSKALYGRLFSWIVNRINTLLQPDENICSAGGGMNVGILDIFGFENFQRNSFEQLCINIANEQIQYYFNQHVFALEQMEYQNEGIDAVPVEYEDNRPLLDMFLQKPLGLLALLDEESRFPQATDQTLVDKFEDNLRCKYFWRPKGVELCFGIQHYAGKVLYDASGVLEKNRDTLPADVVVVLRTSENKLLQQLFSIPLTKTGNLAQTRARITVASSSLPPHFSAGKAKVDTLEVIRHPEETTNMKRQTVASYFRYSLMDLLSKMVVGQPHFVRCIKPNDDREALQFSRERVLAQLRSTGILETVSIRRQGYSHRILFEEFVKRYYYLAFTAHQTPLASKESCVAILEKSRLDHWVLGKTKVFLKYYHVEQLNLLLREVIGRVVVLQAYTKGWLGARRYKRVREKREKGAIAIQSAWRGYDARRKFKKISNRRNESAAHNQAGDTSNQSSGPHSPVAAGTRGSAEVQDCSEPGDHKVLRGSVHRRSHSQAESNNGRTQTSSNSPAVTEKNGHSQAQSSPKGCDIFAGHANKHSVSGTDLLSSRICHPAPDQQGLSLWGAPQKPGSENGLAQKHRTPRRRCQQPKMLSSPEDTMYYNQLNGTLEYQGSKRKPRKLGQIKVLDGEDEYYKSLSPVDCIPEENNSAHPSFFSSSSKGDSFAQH
Sequence of Myosin light chain kinase family member 4 (Homo sapiens) (Q86YV6 whole entry): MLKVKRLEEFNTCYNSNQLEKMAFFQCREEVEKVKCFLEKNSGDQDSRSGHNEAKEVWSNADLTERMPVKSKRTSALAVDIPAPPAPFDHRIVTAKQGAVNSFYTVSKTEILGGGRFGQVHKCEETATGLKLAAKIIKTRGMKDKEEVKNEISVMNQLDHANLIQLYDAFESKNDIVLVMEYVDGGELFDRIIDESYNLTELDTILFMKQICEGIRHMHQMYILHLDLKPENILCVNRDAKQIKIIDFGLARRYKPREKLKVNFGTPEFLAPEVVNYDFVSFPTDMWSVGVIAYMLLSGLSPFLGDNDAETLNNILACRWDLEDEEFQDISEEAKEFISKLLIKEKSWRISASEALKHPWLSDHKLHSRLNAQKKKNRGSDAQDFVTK
Sequence of Tyrosine-protein kinase Lck (Homo sapiens) (P06239 2-509 limits assumed): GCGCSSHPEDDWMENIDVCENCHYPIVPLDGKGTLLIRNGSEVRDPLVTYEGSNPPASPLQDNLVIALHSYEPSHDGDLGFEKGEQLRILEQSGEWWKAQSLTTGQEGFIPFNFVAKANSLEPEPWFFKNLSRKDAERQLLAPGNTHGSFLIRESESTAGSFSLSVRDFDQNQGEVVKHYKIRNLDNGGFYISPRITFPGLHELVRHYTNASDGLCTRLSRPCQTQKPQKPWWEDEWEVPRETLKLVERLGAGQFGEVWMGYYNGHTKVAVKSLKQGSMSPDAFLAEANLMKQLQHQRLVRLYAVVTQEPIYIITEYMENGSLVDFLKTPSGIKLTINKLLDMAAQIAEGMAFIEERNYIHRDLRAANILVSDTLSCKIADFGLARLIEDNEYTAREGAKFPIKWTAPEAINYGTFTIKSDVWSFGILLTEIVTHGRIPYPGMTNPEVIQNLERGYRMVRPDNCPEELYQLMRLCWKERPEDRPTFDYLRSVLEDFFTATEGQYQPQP
Sequence of Testis-specific serine/threonine-protein kinase 3 (Homo sapiens) (Q96PN8 whole entry): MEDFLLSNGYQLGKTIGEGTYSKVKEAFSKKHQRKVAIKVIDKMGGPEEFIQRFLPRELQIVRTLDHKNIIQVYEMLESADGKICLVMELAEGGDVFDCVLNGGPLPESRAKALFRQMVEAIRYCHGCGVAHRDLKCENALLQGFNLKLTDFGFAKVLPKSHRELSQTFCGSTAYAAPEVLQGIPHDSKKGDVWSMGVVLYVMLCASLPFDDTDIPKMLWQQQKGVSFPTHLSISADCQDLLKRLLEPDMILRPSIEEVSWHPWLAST

O=C(N[C@H]1CCCCC/C=C\C2C[C@@]2(C(=O)O)NC(=O)[C@@H]2C[C@@H](Oc3ccncc3)CN2C1=O)OC1CCCC1 (stereo partly drawn) [BI 1675]
residual activity [1]: 100% | residual activity [2]: 66% | residual activity [3]: 63% | residual activity [4]: 90% | residual activity [5]: 85% | residual activity [6]: 86% | residual activity [7]: 100% | residual activity [8]: 100% | residual activity [9]: 100% | residual activity [10]: 89% | residual activity [11]: 100% | residual activity [12]: 100% | residual activity [13]: 100% | residual activity [14]: 90% | residual activity [15]: 100% | residual activity [16]: 91% | residual activity [17]: 100% | residual activity [18]: 100% | residual activity [19]: 38% | residual activity [20]: 100% | residual activity [21]: 87% | residual activity [22]: 73% | residual activity [23]: 71% | residual activity [24]: 78% | residual activity [25]: 100% | residual activity [26]: 100% | residual activity [27]: 93% | residual activity [28]: 88% | residual activity [29]: 100% | residual activity [30]: 80% | residual activity [31]: 100% | residual activity [32]: 96% | residual activity [33]: 100% | residual activity [34]: 100% | residual activity [35]: 86% | residual activity [36]: 100% | residual activity [37]: 100% | residual activity [38]: 100% | residual activity [39]: 100% | residual activity [40]: 100% | residual activity [41]: 93% | inhibition [42]: -4.18% | inhibition [43]: -8.87% | inhibition [44]: 12.8%

COc1ccc2c(O[C@@H]3C[C@H]4C(=O)N[C@]5(C(=O)O)CC5/C=C\CCCCC[C@H](NC(=O)OC5CCCC5)C(=O)N4C3)cc(-c3csc(NC(=O)C(C)C)n3)nc2c1C (stereo partly drawn) [BI 1230]
residual activity [1]: 75% | residual activity [2]: 57% | residual activity [3]: 90% | residual activity [4]: 100% | residual activity [5]: 81% | residual activity [6]: 97% | residual activity [7]: 97% | residual activity [8]: 89% | residual activity [9]: 100% | residual activity [10]: 100% | residual activity [11]: 82% | residual activity [12]: 95% | residual activity [13]: 64% | residual activity [14]: 95% | residual activity [15]: 100% | residual activity [16]: 81% | residual activity [17]: 91% | residual activity [18]: 81% | residual activity [19]: 68% | residual activity [20]: 76% | residual activity [21]: 94% | residual activity [22]: 100% | residual activity [23]: 86% | residual activity [24]: 65% | residual activity [25]: 100% | residual activity [26]: 100% | residual activity [27]: 69% | residual activity [28]: 77% | residual activity [29]: 100% | residual activity [30]: 86% | residual activity [31]: 100% | residual activity [32]: 97% | residual activity [33]: 96% | residual activity [34]: 100% | residual activity [35]: 100% | residual activity [36]: 100% | residual activity [37]: 97% | residual activity [38]: 80% | residual activity [39]: 93% | residual activity [40]: 95% | residual activity [41]: 70% | inhibition [42]: 46.3% | inhibition [43]: 43.5% | inhibition [44]: 24.6%
